From US8440710B2, “HSL inhibitors useful in the treatment of diabetes” (Hoffmann-La Roche Inc., priority 2009, dated 2013)

target: T1, human HSL (Homo sapiens, UniProt Q05469); assay: Human Hormone-Sensitive Lipase (HSL) enzyme inhibition assay (colorimetric, DMPT substrate); format: biochemical; details: human full length HSL-His6, 2,3-dimercapto-1-propanol tributyrate substrate, 37° C. 20 minutes, absorbance at 405 nm; read-out: HSL hum IC50
T1 construct: generate a full length human HSL ORF with a 3′-His6 tag; made in house; host or cells: High 5 insect cells (baculovirus, pFast-BAC)
T1 sequence (Q05469 1-1076): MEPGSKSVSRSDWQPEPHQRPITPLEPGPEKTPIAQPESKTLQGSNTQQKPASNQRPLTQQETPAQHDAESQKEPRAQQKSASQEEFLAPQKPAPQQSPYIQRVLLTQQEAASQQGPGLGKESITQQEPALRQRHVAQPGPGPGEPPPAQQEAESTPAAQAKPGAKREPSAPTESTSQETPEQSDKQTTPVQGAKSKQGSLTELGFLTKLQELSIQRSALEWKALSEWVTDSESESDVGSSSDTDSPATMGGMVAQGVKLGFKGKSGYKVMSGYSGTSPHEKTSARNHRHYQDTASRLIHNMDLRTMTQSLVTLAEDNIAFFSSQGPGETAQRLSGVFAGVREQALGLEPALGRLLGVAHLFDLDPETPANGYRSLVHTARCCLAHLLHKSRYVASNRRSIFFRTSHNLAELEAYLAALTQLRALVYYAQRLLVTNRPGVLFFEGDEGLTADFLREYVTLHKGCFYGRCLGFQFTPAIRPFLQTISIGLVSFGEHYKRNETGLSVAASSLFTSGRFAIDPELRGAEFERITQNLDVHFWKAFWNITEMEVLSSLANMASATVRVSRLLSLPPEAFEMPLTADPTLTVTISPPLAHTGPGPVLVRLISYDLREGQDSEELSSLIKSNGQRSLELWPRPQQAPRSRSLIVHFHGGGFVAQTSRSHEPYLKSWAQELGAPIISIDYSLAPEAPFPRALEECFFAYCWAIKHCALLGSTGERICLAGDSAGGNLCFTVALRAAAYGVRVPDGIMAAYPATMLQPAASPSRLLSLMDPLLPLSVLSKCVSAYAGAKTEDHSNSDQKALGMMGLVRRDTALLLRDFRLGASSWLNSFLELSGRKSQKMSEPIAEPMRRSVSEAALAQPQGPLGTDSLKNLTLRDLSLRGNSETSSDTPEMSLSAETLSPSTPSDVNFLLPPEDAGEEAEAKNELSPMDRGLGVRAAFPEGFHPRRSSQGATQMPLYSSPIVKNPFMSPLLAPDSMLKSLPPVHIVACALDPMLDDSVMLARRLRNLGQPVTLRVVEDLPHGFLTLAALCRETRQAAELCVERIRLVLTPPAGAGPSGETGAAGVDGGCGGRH
In short: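 Full-length human HSL with C-terminal His6, expressed in baculovirus-infected High 5 cells and Ni-NTA purified, was added (15 ug/ml stock) to 1.5 mM DMPT in 100 mM MOPS pH 7.2, 0.2 mg/ml fatty acid-free BSA containing compound. After 20 min at 37 °C, DTNB with SDS/Triton X-100 was added; A405 read after 15 min at RT.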

Structure (SMILES) | IC50 [nM]
COC[C@]1(O)CC[C@]2(CCN(c3ccc(O[C@H](C)C(F)(F)F)nc3)C2=O)CC1 [Example 152, (5α,8α)-8-Hydroxy-8-methoxymethyl-2-[6-((R)-2,2,2-trifluoro-1-methyl-ethoxy)-pyridin-3-yl]-2-aza-spiro[4.5]decan-1-one] | 50
COC[C@]1(O)CC[C@]2(CCN(c3ccc(O[C@@H](C)C(F)(F)F)nc3)C2=O)CC1 [Example 153, (5α,8α)-8-Hydroxy-8-methoxymethyl-2-[6-((S)-2,2,2-trifluoro-1-methyl-ethoxy)-pyridin-3-yl]-2-aza-spiro[4.5]decan-1-one] | 50
CN(C)C(=O)C[C@]1(O)CC[C@]2(CCN(c3ccc(OC(F)(F)F)cc3)C2=O)CC1 [Example 156, 2-[(5α,8α)-8-Hydroxy-1-oxo-2-(4-trifluoromethoxy-phenyl)-2-aza-spiro[4.5]dec-8-yl]-N,N-dimethyl-acetamide] | 60
CN(C)C(=O)C[C@]1(O)CC[C@]2(CCN(c3ccc(OCC(F)(F)F)cc3)C2=O)CC1 [Example 157, 2-((5α,8α)-8-Hydroxy-1-oxo-2-(4-(2,2,2-trifluoroethoxy)phenyl)-2-aza-spiro[4.5]decan-8-yl)-N,N-dimethylacetamide] | 250
CNC(=O)C[C@]1(O)CC[C@]2(CCN(c3ccc(OCC(F)(F)F)cc3)C2=O)CC1 [Example 158, 2-((5α,8α)-8-Hydroxy-1-oxo-2-(4-(2,2,2-trifluoroethoxy)phenyl)-2-aza-spiro[4.5]decan-8-yl)-N-methylacetamide] | 340
O=C1N(c2ccc([C@@H](O)C(F)(F)F)cc2)CC[C@]12CC[C@@](O)(COCC(F)F)CC2 [Example 160, (5α,8α)-8-(2,2-Difluoro-ethoxymethyl)-8-hydroxy-2-[4-((R)-2,2,2-trifluoro-1-hydroxy-ethyl)-phenyl]-2-aza-spiro[4.5]decan-1-one] | 300
CCC[C@]1(O)CC[C@@]2(CCN(c3ccc(OC(C)C(F)(F)F)cc3)C2=O)CC1 (stereo partly drawn) [Example 163, (5α,8β)-8-Hydroxy-8-propyl-2-[4-(2,2,2-trifluoro-1-methyl-ethoxy)-phenyl]-2-aza-spiro[4.5]decan-1-one] | 790
O=C1N(c2ccc(OCC(F)(F)F)nc2)CC[C@]12CC[C@@](O)(CCC(F)(F)F)CC2 [Example 166, (5α,8α)-8-Hydroxy-2-[6-(2,2,2-trifluoro-ethoxy)-pyridin-3-yl]-8-(3,3,3-trifluoro-propyl)-2-aza-spiro[4.5]decan-1-one] | 40
CCC[C@]1(O)CC[C@]2(CCN(c3ccc(OCC(F)(F)F)nc3)C2=O)CC1 [Example 167, (5α,8α)-8-Hydroxy-8-propyl-2-[6-(2,2,2-trifluoro-ethoxy)-pyridin-3-yl]-2-aza-spiro[4.5]decan-1-one] | 40
CC[C@]1(O)CC[C@]2(CCN(c3ccc(OCC(F)(F)F)nc3)C2=O)CC1 [Example 168, (5α,8α)-8-Ethyl-8-hydroxy-2-[6-(2,2,2-trifluoro-ethoxy)-pyridin-3-yl]-2-aza-spiro[4.5]decan-1-one] | 70
CC[C@]1(O)CC[C@]2(CCN(c3ccc(CCC(F)(F)F)cc3)C2=O)CC1 [Example 169, (5α,8α)-8-Ethyl-8-hydroxy-2-[4-(3,3,3-trifluoro-propyl)-phenyl]-2-aza-spiro[4.5]decan-1-one] | 50
CCC[C@]1(O)CC[C@]2(CCN(c3ccc(CCC(F)(F)F)cc3)C2=O)CC1 [Example 170, (5α,8α)-8-Hydroxy-8-propyl-2-[4-(3,3,3-trifluoro-propyl)-phenyl]-2-aza-spiro[4.5]decan-1-one] | 50
CC[C@]1(O)CC[C@]2(CCN(c3ccc(O[C@@H](C)C(F)(F)F)nc3)C2=O)CC1 [Example 171, (5α,8α)-8-Ethyl-8-hydroxy-2-[6-((S)-2,2,2-trifluoro-1-methyl-ethoxy)-pyridin-3-yl]-2-aza-spiro[4.5]decan-1-one] | 30
C[C@H](Oc1ccc(N2CC[C@]3(CC[C@@](O)(C(F)(F)F)CC3)C2=O)cn1)C(F)(F)F [Example 173, (5α,8α)-8-Hydroxy-8-trifluoromethyl-2-[6-((S)-2,2,2-trifluoro-1-methyl-ethoxy)-pyridin-3-yl]-2-aza-spiro[4.5]decan-1-one] | 50
C[C@@H](Oc1ccc(N2CC[C@]3(CC[C@@](O)(C(F)(F)F)CC3)C2=O)cn1)C(F)(F)F [Example 174, (5α,8α)-8-Hydroxy-8-trifluoromethyl-2-[6-((R)-2,2,2-trifluoro-1-methyl-ethoxy)-pyridin-3-yl]-2-aza-spiro[4.5]decan-1-one] | 60
CC[C@]1(O)CC[C@]2(CCN(c3ccc(O[C@H](C)C(F)(F)F)nc3)C2=O)CC1 [Example 175, (5α,8α)-8-Ethyl-8-hydroxy-2-[6-((R)-2,2,2-trifluoro-1-methyl-ethoxy)-pyridin-3-yl]-2-aza-spiro[4.5]decan-1-one] | 40

Second part, the compound after the results:

IC50 [nM] | Structure (SMILES)
30 | COC[C@]1(O)CC[C@]2(CCN(c3ccc(CC(F)(F)F)cc3)C2=O)CC1 [Example 154, (5α,8α)-8-Hydroxy-8-methoxymethyl-2-[4-(2,2,2-trifluoro-ethyl)-phenyl]-2-aza-spiro[4.5]decan-1-one]
9 | O=C1N(c2ccc([C@@H](O)C(F)(F)F)cc2)CC[C@]12CC[C@@](O)(COCC(F)(F)F)CC2 [Example 155, (5α,8α)-8-Hydroxy-8-(2,2,2-trifluoro-ethoxymethyl)-2-[4-((R)-2,2,2-trifluoro-1-hydroxy-ethyl)-phenyl]-2-aza-spiro[4.5]decan-1-one]
20 | CC(C)OC[C@]1(O)CC[C@]2(CCN(c3ccc([C@@H](O)C(F)(F)F)cc3)C2=O)CC1 [Example 159, (5α,8α)-8-Hydroxy-8-isopropoxymethyl-2-[4-((R)-2,2,2-trifluoro-1-hydroxy-ethyl)-phenyl]-2-aza-spiro[4.5]decan-1-one]
10 | CCc1ccc(CCN2CC[C@]3(CC[C@@](O)(C(C)C)CC3)C2=O)cc1 [Example 161, (5α,8α)-2-(4-Ethylphenethyl)-8-hydroxy-8-isopropyl-2-aza-spiro[4.5]decan-1-one]
20 | CCC[C@]1(O)CC[C@]2(CCN(c3ccc(OC(C)C(F)(F)F)cc3)C2=O)CC1 (stereo partly drawn) [Example 164, (5α,8α)-8-Hydroxy-8-propyl-2-[4-(2,2,2-trifluoro-1-methyl-ethoxy)-phenyl]-2-aza-spiro[4.5]decan-1-one]
20 | CCC[C@]1(O)CC[C@]2(CCN(c3ccc(O[C@@H](C)C(F)(F)F)cc3)C2=O)CC1 [Example 164a, (5α,8α)-8-Hydroxy-8-propyl-2-[4-((S)-2,2,2-trifluoro-1-methyl-ethoxy)-phenyl]-2-aza-spiro[4.5]decan-1-one]
20 | CCC[C@]1(O)CC[C@]2(CCN(c3ccc(O[C@H](C)C(F)(F)F)cc3)C2=O)CC1 [Example 164b, (5α,8α)-8-Hydroxy-8-propyl-2-[4-((R)-2,2,2-trifluoro-1-methyl-ethoxy)-phenyl]-2-aza-spiro[4.5]decan-1-one]
20 | CC[C@]1(O)CC[C@]2(CCN(c3ccc(OC(C)C(F)(F)F)cc3)C2=O)CC1 (stereo partly drawn) [Example 165, (5α,8α)-8-Ethyl-8-hydroxy-2-[4-(2,2,2-trifluoro-1-methyl-ethoxy)-phenyl]-2-aza-spiro[4.5]decan-1-one]
20 | CC[C@]1(O)CC[C@]2(CCN(c3ccc(O[C@@H](C)C(F)(F)F)cc3)C2=O)CC1 [Example 165a, (5α,8α)-8-Ethyl-8-hydroxy-2-[4-((S)-2,2,2-trifluoro-1-methyl-ethoxy)-phenyl]-2-aza-spiro[4.5]decan-1-one]
30 | CC[C@]1(O)CC[C@]2(CCN(c3ccc(O[C@H](C)C(F)(F)F)cc3)C2=O)CC1 [Example 165b, (5α,8α)-8-Ethyl-8-hydroxy-2-[4-((R)-2,2,2-trifluoro-1-methyl-ethoxy)-phenyl]-2-aza-spiro[4.5]decan-1-one]
20 | CCC[C@]1(O)CC[C@]2(CCN(c3ccc(O[C@@H](C)C(F)(F)F)nc3)C2=O)CC1 [Example 172, (5α,8α)-8-Hydroxy-8-propyl-2-[6-((S)-2,2,2-trifluoro-1-methyl-ethoxy)-pyridin-3-yl]-2-aza-spiro[4.5]decan-1-one]
